One assay concerns the target T1, Human HDAC11 (Homo sapiens, UniProt Q96DB2).
T1 construct: GST (N); purchased BioMol SE-560
T1 sequence (Q96DB2 1-347): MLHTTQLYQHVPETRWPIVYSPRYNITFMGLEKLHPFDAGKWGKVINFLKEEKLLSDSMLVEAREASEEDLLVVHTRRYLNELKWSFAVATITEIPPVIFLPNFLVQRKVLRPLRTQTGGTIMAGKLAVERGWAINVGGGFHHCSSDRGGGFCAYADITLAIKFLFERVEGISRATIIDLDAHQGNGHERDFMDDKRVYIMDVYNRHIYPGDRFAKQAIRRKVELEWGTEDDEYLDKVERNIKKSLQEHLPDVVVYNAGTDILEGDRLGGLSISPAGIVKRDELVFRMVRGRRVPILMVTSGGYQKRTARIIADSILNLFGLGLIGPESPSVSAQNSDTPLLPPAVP
The assay can be described thus: In vitro HDAC11 inhibition, fluorogenic peptide assay. The note with it: for IC50: read-out: IC50 (nM) of enzyme activity HDAC11. The class given is biochemical. Here is the method: All HDAC assays were performed using acetylated AMC-labeled peptide substrate: • Substrate for isoforms HDAC1, 2, 3, 4, 5, 6, 7, 9, 10, 11 and HeLa nuclear extract assays: Acetylated fluorogenic peptide from p53 residues 379-382 (RHKKAc) (BioMol. Cat. # KI-104). • Substrate for HDAC8 assays: Acetylated fluorogenic peptide from p53 residues 379-382 (RHKAcKAc) (BioMol. Cat. # KI-178).
Enzymes: • HDAC1 assay: 75 nM Human HDAC1 (GenBank Accession No. NM_004964): Full length with C-terminal GST tag, MW=79.9 kDa, expressed by baculovirus expression system in Sf9 cells (BioMol. Cat. # SE-456). • HDAC2 assay: 5 nM Human HDAC2 (GenBank Accession No. Q92769): Full length with C-terminal His tag, MW=60 kDa, expressed by baculovirus expression system in Sf9 cells (BioMol. Cat. # SE-500). • HDAC3 assay: 2.3 nM Human HDAC3/NcoR2 (GenBank Accession No. NM_003883 for HDAC3, GenBank Accession No.NM_006312 for NcoR2): Complex of human HDAC3, full length with C-terminal His tag, MW=49.7 kDa, and human NCOR2, N-terminal GST tag, MW=39 kDa, co-expressed in baculovirus expression system (BioMol. Cat. # SE-507). • HDAC4 assay: 266 nM Human HDAC4 (GenBank Accession No. NM_006037): Amino acids 627-1085 with N-terminal GST tag, MW=75.2 kDa, expressed in baculovirus expression system (BioMol, Hamburg, Germany). • HDAC5 assay: 588 nM Human HDAC5 (GenBank Accession No. NM_001015053): Full length with Nterminal GST tag, MW=150 kDa, expressed by baculovirus expression system in Sf9 cells (BioMol, Hamburg, Germany). • HDAC6 assay: 13 nM Human HDAC6 (GenBank Accession No. BC069243): Full length with N-terminal GST tag, MW=159 kDa, expressed by baculovirus expression system in Sf9 cells (BioMol. Cat. # SE-508). • HDAC7 assay: 962 nM Human HDAC7 (GenBank Accession No. AY302468): Amino acids 518-end with N-terminal GST tag, MW=78 kDa, expressed in baculovirus expression system (BioMol, Hamburg, Germany). • HDAC8 assay: 119 nM Human HDAC8 (GenBank Accession No. NM018486): Full length, MW=42 kDa, expressed in an E. coli expression system (BioMol. […]
The reactions were carried out in a 96-well microplate for fluorometry in a 50 μl reaction volume. […] The reaction was allowed to develop for 45 minutes at 30° C. with 5% CO2; then the fluorescent signal was measured with an excitation wavelength at 360 nm and an emission wavelength at 460 nm in a microplate-reading fluorometer (GeminiXS; Molecular Devices, Sunnyvale, Calif.). […] IC50 was calculated by fitting the experimental data to a dose-response curve. […]

Another assay concerns SK-MES-1. The assay can be described thus: Cancer cell growth inhibition (CellTiter-Glo), SK-MES-1. Type of assay: cell-based, Human. The note with it: Homo sapiens; Lung Cancer, SK-MES-1, 72 h treatment. On the procedure: (§1) Cell culture-based assays were used to evaluate the ability of compounds of the invention to inhibit cancer cell growth.
(§2) Cells were obtained from the American Type Culture Collection (ATCC). Cells were cultured at 37° C. with 5% CO2 in the appropriate growth medium (see table below), and harvested respectively during the logarithmic growth period and counted with hemocytometer. The cell viability was examined by trypan blue exclusion. Cell concentrations were adjusted to 5.56×10^4 cells/ml with respective medium.
(§3) Stock solutions of test compounds and positive drugs Doxorubicin (Zhejiang, Haizheng, China), Cisplatin (Nanjing Zhiyao, China) and Mitomycin (Zhejiang, Haizheng, China) were prepared in dimethyl sulphoxide (DMSO) or PBS at 20 mM.
(§4) In order to determine the IC50 for each compound, experiments were carried out in 96-well plates and the cell lines seeded at a density of 5,000 cells/well. […] All treatments were performed in triplicate. 10 μl of drug solution was added to each well and incubated for 72 hours. At the end of the incubation, 100 μl of the CellTiter-Glo Reagent were added to each well and the contents were mixed for 2 munites on an orbital shaker to induce cell lysis. The plate was incubated at room temperature for 10 minutes to stabilize luminiscent signal, and luminiscent was recorded. […] In order to calculate IC50 values, dose-responsive curves were fitted using nonlinear regression model with a sigmoidal dose response.

The test system of the next assay is CNE2. Kind of assay: Cancer cell growth inhibition (CellTiter-Glo), CNE2. The class given is cell-based, Human. As to conditions: Homo sapiens, CNE-2; Nasopharyngeal, CNE2, 72 h treatment. On the procedure: as §1, §2, §3, §4

As to `COc1ccc(-c2cc(-c3ccccc3)[nH]c2C(=O)NCCCCCC(=O)NO)cc1` [Compound A, N-[6-(hydroxyamino)-6-oxohexyl]-3-(4-methoxyphenyl)-5-phenyl-1H-pyrrole-2-carboxamide, reference compound], the “Selectivity against HDAC6 (IC50 HDACx/IC50 HDAC6) HDAC11” value on Human HDAC11 (IC50 HDAC11/IC50 HDAC6) stood at 34. Also, the concentration for half-maximal inhibition (IC50) on Human HDAC11 came to 680 nM.
For the compound `O=C(CCCCCNC(=O)c1[nH]c(-c2ccccc2)cc1-c1ccc(O)cc1)NO` [Example 1, N-(6-(hydroxyamino)-6-oxohexyl)-3-(4-hydroxyphenyl)-5-phenyl-1H-pyrrole-2-carboxamide], the IC50 in the assay on SK-MES-1 amounted to 2.88 µM; with CNE2 it was 2.77 µM.
On the same counts, the results for `O=C(CCCCCNC(=O)c1[nH]c(-c2ccc(O)cc2)cc1-c1ccccc1)NO` [Example 2, N-(6-(hydroxyamino)-6-oxohexyl)-5-(4-hydroxyphenyl)-3-phenyl-1H-pyrrole-2-carboxamide] are 4.8 µM and 10.1 µM.
As for `O=C(CCCCCNC(=O)c1[nH]c(-c2ccc(O)cc2)cc1-c1ccoc1)NO` [Example 5, 3-(3-furyl)-N-(5-(hydroxycarbamoyl)pentyl)-5-(4-hydroxy-phenyl)-1H-pyrrole-2-carboxamide], the IC50 at Human HDAC11 turned out to be 18 nM; with SK-MES-1, 3.62 µM; in the assay with CNE2, 10.1 µM.
As for `O=C(CCCCCNC(=O)c1[nH]c(-c2ccc(O)cc2)cc1-c1ccsc1)NO` [Example 6, N-(5-(hydroxycarbamoyl)pentyl)-5-(4-hydroxyphenyl)-3-(3-thienyl)-1H-pyrrole-2-carboxamide], the 50% inhibitory concentration (IC50) came to 55 nM at Human HDAC11, 3.7 µM in the assay on SK-MES-1 and 7.39 µM with CNE2.

One may read the IC50 as the concentration needed to halve the response being measured.

The values above are taken from patent publication US20150038545A1, “HYDROXYPHENYL PYRROLE COMPOUNDS CONTAINING AN HYDROXAMIC ACID AS HDAC INHIBITORS AND MEDICINAL APPLICATIONS THEREOF” (UNIVERSIDAD DEL PAÍS VASCO, priority 2011, published 2015).
